Test results taken from patent publication US20260117192A1, “METHODS OF PRODUCING A TUMOR AVATAR” (ARIEL SCIENTIFIC INNOVATIONS LTD., priority 2023, published 2026).

Assays:
[1] = test system: gastric cancer organoids; experiment: Drug cytotoxicity, CellTiter-Glo cell viability and bright field images, organoids; assay type: cell-based, human; settings: for cell death: targeted drugs at concentrations found in peripheral blood (crizotinib 1 μM, osimertinib 0.8 μM, afatinib 0.150 μM); for effect on viability: targeted drugs, 72 hours (dasatinib 0.180 μM, gefitinib 3 μM, imatinib 4 μM, capmatinib 8 μM)
Protocol: (§1) Organoids and stroma cells isolation and culture: Human gastric cancer along with surrounding normal tissue were obtained from a consenting patient undergoing surgery at Ichilov Hospital, with approval from the Institutional Review Board. The samples were transported in cold hypothermosol medium and processed within 24 hours post-surgery. Upon acquisition, the tumor tissue was divided into three equal parts for various analyses. One third was snap-frozen for subsequent DNA isolation, another third was fixed in 4% paraformaldehyde for histological examination, and the remaining portion was prepared for cell culture. The tissue underwent digestion using Collagenase I (1 mg/ml), Liberase, and DNAse (10 ug/ml), followed by separation into organoids and stroma cell cultures. Organoids were cultured as previously described hereinbelow, with medium replacement twice weekly and passaging via mechanical and enzymatic dissociation using TrypLE enzyme. Stroma cells were cultured in mesenchymal stem cell medium (MSCM) on pre-coated Matrigel (20%) and fibronectin (2 μg/cm2) 4-well dish plates. Upon reaching 80% confluency the cells were subculturing using accutase to 6 well plate and then to 25 cm flask. From passage 3 onwards, cells were sub-cultured in 25 cm flask and then in 75 cm flasks using MSCM, endothelial cell medium (ECM), or fibroblast medium (FM-2) for subsequent passages. Bright field images were obtained using Operetta High Content Screening System or Leica microscope.
(§2) Cell viability assay: To assess co-culture growth rates and the cytotoxic effects of various drugs, a luminescent cell viability assay was conducted using the CellTiter-Glo kit from Promega following the manufacturer's guidelines. For the drug cytotoxicity assay, co-cultures or organoids were seeded in 384-well plates and allowed to organize for 48 hours. […] The chosen drug concentrations were based on their higher plasma concentration values. Following treatment, each well containing co-cultures or organoids was lysed using CellTiter-Glo reagents, thoroughly mixed, and incubated for 30 minutes, after which luminescence was measured.

[2] = test system: stroma cell monocultures; experiment: Drug cytotoxicity, CellTiter-Glo cell viability, stroma cell monocultures; assay type: cell-based, human; settings: stroma cells monocultures, targeted drugs, 72 hours (dasatinib 0.180 μM, imatinib 4 μM, capmatinib 8 μM)
Protocol: as §1, with “Stroma cells were cultured in mesenchymal stem cell medium (MSCM) on pre-coated Matrigel (20%) and fibronectin (2 μg/cm2) 4-well dish plates. Upon reaching 80% confluency the cells were subculturing using accutase to 6 well plate and then to 25 cm flask. From passage 3 onwards, cells were sub-cultured in 25 cm flask and then in 75 cm flasks using MSCM, endothelial cell medium (ECM), or fibroblast medium (FM-2) for subsequent passages. Bright field images were obtained using Operetta High Content Screening System or Leica microscope.” left out
(§3) Cell viability assay: To assess co-culture growth rates and the cytotoxic effects of various drugs, a luminescent cell viability assay was conducted using the CellTiter-Glo kit from Promega following the manufacturer's guidelines. […] Following treatment, each well containing co-cultures or organoids was lysed using CellTiter-Glo reagents, thoroughly mixed, and incubated for 30 minutes, after which luminescence was measured.

[3] = test system: ECM:FM2:ORG co-cultures (TECs:TASCs:Org); experiment: Drug cytotoxicity, CellTiter-Glo cell viability and bright field images, organoid-stroma cell co-cultures; assay type: cell-based, human; settings: for effect on viability: co-culture, targeted drugs, 72 hours (afatinib 0.150 μM, osimertinib 0.8 μM, dasatinib 0.180 μM, gefitinib 3 μM, imatinib 4 μM, capmatinib 8 μM)
Protocol: Organoid-stroma cells co-culture: Initially, organoids were mechanically dissociated into smaller fragments through pipetting, followed by enzymatic digestion into single cells using dispase II at 37° C. for 20 minutes. Concurrently, stroma cells cultured in FM-2, ECM, and MSCM, as well as Huvec cells cultured in ECM, were harvested at 80% confluency in the flask and dissociated using accutase. In certain experiments, after cells dissociation, each cell population was stained with a vital dye before their co-culture. Cells cultured in ECM and Huvec cell lines were stained blue using the CellTrace Violet Dye Proliferation Kit. […] Imaging was performed at 10× magnification using an Olympus Confocal Microscope. Subsequently, dissociated cells were mixed in 35 ul of co-culture medium, at ratios of 1:1:1, 1:4:1, 4:1:1 and 1:1:4 of Huvec or cells cultured in ECM, cells cultured in FM2 and organoids respectively. Co-cultures composed of ECM:organoids (ORG), FM2:ORG, and Huvec:ORG were also created at 1:1, 1:4, and 4:1 ratios, respectively. Each mix, containing 4000 cells, was then co-cultured in 384 wells low repellent plates, with DMEM/F12 medium supplemented with 10 mM HEPES, abam, 2 mM glutamax, non-essential amino acids, sodium pyruvate, 500 ng ml-1 R-spondin, 100 ng ml-1 noggin, 100 ng ml-1 Wnt3A, 10 nM gastrin, Prostaglandin E2, 100 ng ml-1 IGF1, 10 ng·ml-1 FGF2, 10 ng·ml-1 FGF10, 50 ng·ml-1 EGF, B27, 0.5 μM A 83-01, 4 mM nicotinamide, 10 μM Y-27632, 1 μg ml-1 hydrocortisone, 50 μg ml-1 ascorbic acid, 5 ng ml-1 VEGF and 100 ng ml-1 IL-6, 4 μg ml-1 heparin, and 5% fetal calf serum in 10 ng·ml-1 and fibronectin and 5% Matrigel as scaffold and incubated in 5% CO2 at 37° C. for different intervals of time.
as §2

[4] = test system: pancreas organoids; experiment: Celltiter-Glo viability of drug treated pancreas organoids; assay type: cell-based, human; settings: 72 hours treatment
Protocol: (§4) FIGS. 10A-10B: (10A) Representative immunofluorescence and brightfield images of human pancreas tumor avatar composed of Huvec endothelial cells, Org and TASCs mix at a 1:1:1, 1:4:1 or 4:1:1 ratio, respectively cultivated in a Matrigel (5%) and fibronectin scaffold (10 ng/ml), during 6 days. Org were stained with Cell Vue Claret far red fluorochrome (purple cells). Cell viability was assessed by Calcein (green)/PI (red) staining and images were acquired with Operetta Imager at 5× magnification. (10B) Line graphs showing relative light unit percentage (RLU %) of everolimus or FOLFOX treated pancreas tumor avatars and organoids as compared with their respective vehicle controls, after the same day of drug or vehicle exposure, (RLU %=RLUtreatment*100)/RLUveh). Tumor avatars were cultured for 3 days, treated with the specified drugs for other 72 hours and viability determined by Celltiter-Glo assay.
(§5) Next, the inventors aimed to examine a tumor avatar model, composed of pancreas tumor epithelial cells, TASCs and Huvec cells, cultured in the presence of a Matrigel and fibronectin scaffold. Huvec, TASCs and […] organoid-derived tumor epithelial cells clusters (5-15 cells/cluster) were seeded at different ratios (1:1:1, 1:4:4 or 4:1:4 respectively) and cultured for 6 days. Tumor cells, labelled with CellVue Claret far red fluorochrome localized in the interior of the tumor avatar.

[5] = test system: human pancreas tumor avatar; experiment: Celltiter-Glo viability of drug treated pancreas tumor avatars; assay type: cell-based; settings: pancreas tumor avatars (Huvec, TASCs, Org), cultured 3 days, treated 72 hours
Protocol: as §4, §5

[6] = test system: HUVEC:FM-2:ORG co-cultures; experiment: Drug cytotoxicity, CellTiter-Glo cell viability, co-cultures containing Huvec cells; assay type: cell-based, human; settings: paclitaxel 5 μM, 72 hours
Protocol: Organoid-stroma cells co-culture: Initially, organoids were mechanically dissociated into smaller fragments through pipetting, followed by enzymatic digestion into single cells using dispase II at 37° C. for 20 minutes. Concurrently, stroma cells cultured in FM-2, ECM, and MSCM, as well as Huvec cells cultured in ECM, were harvested at 80% confluency in the flask and dissociated using accutase. In certain experiments, after cells dissociation, each cell population was stained with a vital dye before their co-culture. Cells cultured in ECM and Huvec cell lines were stained blue using the CellTrace Violet Dye Proliferation Kit. […] Imaging was performed at 10× magnification using an Olympus Confocal Microscope. Subsequently, dissociated cells were mixed in 35 ul of co-culture medium, at ratios of 1:1:1, 1:4:1, 4:1:1 and 1:1:4 of Huvec or cells cultured in ECM, cells cultured in FM2 and organoids respectively. […]
as §3

[7] = test system: human gastric tumor avatars in the presence of lymphocytes; experiment: Cell-Titer Glo viability of gastric tumor avatars with peripheral blood lymphocytes; assay type: cell-based; settings: avatars of patient 1 and patient 2 with autologous lymphocytes, various concentrations, 72 hours
Text: FIGS. 12A-12F: (12A) Representative brightfield images of human gastric tumor avatars from a patient with gastrointestinal sarcoma (patient 1) and a second patient (patient 2) with gastric adenocarcinoma, composed of organoids and stroma cells. Cells were dissociated from gastric tissue and cultured in a Matrigel dome in an adherent plate in tumor avatar medium from day 0. After 7 days of culture, organoids remain in the dome and stroma cells and metastatic tumor cells invaded the tissue culture plate outside the dome. […] (12B) Representative brightfield images of defrosted human gastric tumor avatars from defrosted tumor avatars. The tumor avatars were sub-cultured in a Matrigel dome using an adherent plate in the presence of tumor avatar medium from day 3 to day 13. […] (12C-12D). Representative brightfield images of human gastric tumor avatars from a patient with gastrointestinal sarcoma (patient 1) and a second patient (patient 2) with gastric adenocarcinoma, composed of organoids and stroma cells. […] Cell viability was detected after 72 hours of treatment using Cell-Titer Glo assay.
Lymphocytes were isolated from the peripheral blood of patient 1 and patient 2. […] Pembrolizumab was added at various concentrations to the tumor avatars and cell viability was monitored for 72 hours after treatment using the Cell-Titer Glo assay.

[8] = test system: patient 1 (gastrointestinal sarcoma) and patient 2 (gastric adenocarcinoma); experiment: Administration to the patients; assay type: in vivo, human; settings: both patients

CN(C)C/C=C/C(=O)Nc1cc2c(Nc3ccc(F)c(Cl)c3)ncnc2cc1O[C@H]1CCOC1 [afatinib]
cell death ([1]; organoids, 72 hours): approximately 50%

CNC(=O)c1ccc(-c2cnc3ncc(Cc4ccc5ncccc5c4)n3n2)cc1F [capmatinib]
effect on viability ([1]; organoids): neither the organoids nor the co-culture showed significant response | effect on viability [2]: decreased viability | effect on viability [3]: neither the organoids nor the co-culture showed significant response

C[C@@H](Oc1cc(-c2cnn(C3CCNCC3)c2)cnc1N)c1c(Cl)ccc(F)c1Cl [crizotinib]
cell death ([1]; organoids, 72 hours): more than 50% | cell death ([3]; stroma cells-organoid co-cultures, crizotinib 1 μM, 72 hours): more than 50%

CO[C@H]1C[C@@H]2CC[C@@H](C)[C@@](O)(O2)C(=O)C(=O)N2CCCC[C@H]2C(=O)O[C@H]([C@H](C)C[C@@H]2CC[C@@H](OCCO)[C@H](OC)C2)CC(=O)[C@H](C)/C=C(\C)[C@@H](O)[C@@H](OC)C(=O)[C@H](C)C[C@H](C)/C=C/C=C/C=C/1C [everolimus]
effect of treatment on viability (RLU %) [4]: neither the organoids nor the tumor avatar models were affected | effect of treatment on viability (RLU %) [5]: neither the organoids nor the tumor avatar models were affected

COc1cc2ncnc(Nc3ccc(F)c(Cl)c3)c2cc1OCCCN1CCOCC1 [gefitinib]
effect on viability ([1]; organoids): neither the organoids nor the co-culture showed significant response | effect on viability [3]: neither the organoids nor the co-culture showed significant response

Cc1ccc(NC(=O)c2ccc(CN3CCN(C)CC3)cc2)cc1Nc1nccc(-c2cccnc2)n1 [imatinib]
effect on viability ([1]; organoids): neither the organoids nor the co-culture showed significant response | effect on viability [2]: decreased viability | effect on viability [3]: neither the organoids nor the co-culture showed significant response

C=CC(=O)Nc1cc(Nc2nccc(-c3cn(C)c4ccccc34)n2)c(OC)cc1N(C)CCN(C)C [osimertinib]
cell death ([1]; organoids, 72 hours): approximately 50% | effect on viability [3]: resistant

CC(=O)O[C@H]1C(=O)[C@@]2(C)[C@H]([C@H](OC(=O)c3ccccc3)[C@]3(O)C[C@H](OC(=O)[C@H](O)[C@@H](NC(=O)c4ccccc4)c4ccccc4)C(C)=C1C3(C)C)[C@]1(OC(C)=O)CO[C@@H]1C[C@@H]2O [paclitaxel]
cytotoxicity at 5 µM ([1]; Homo sapiens, 72 h, read-out: decrease in cell viability): 53% | size and integrity in bright field images ([1]; organoids, paclitaxel 5 μM, 72 hours): reduced the size and affected the integrity | cell death ([3]; TECs:TASCs:Org ratio 1:1:4, paclitaxel 5 μM, 72 hours): 22% | cell death ([3]; TECs:TASCs:Org ratios 1:1:1, 4:1:1 and 1:4:1, paclitaxel 5 μM, 72 hours): approximately 40% | size and integrity in bright field images ([3]; co-cultures, paclitaxel 5 μM, 72 hours): reduced the size and affected the integrity | cell death [6]: approximately 10%

Pembrolizumab: Pembrolizumab immunotherapy
effectiveness (cell viability) [7]: effective | patient response [8]: both respond
